Assay results: patent US20240417387A1, “SULFONYLPIPERAZINYL COMPOUNDS FOR TREATMENT OF BACTERIAL INFECTIONS” (Hoffmann-La Roche Inc., priority 2021, published 2024)
≈ marks a conversion by molar mass, not a printed value.

Tests used:
[1] = target: Escherichia coli UDP-2,3-diacylglucosamine hydrolase (LpxH) (Escherichia coli (strain K12), UniProt P43341); experiment: Enzymatic IC50 assay of Escherichia coli LpxH (UMP/CMP-Glo luminescence); assay type: biochemical; settings: Enzymatic IC50 against Escherichia coli LpxH; read-out: IC50 (converted)
Experimental: The inhibitory potency of compounds of Escherichia coli UDP-2,3-diacylglucosamine hydrolase (LpxH) was determined in an enzymatic assay. UDP-2,3-diacylglucosamine (UDP-DAG) was purified from the Caulobacter crescentus LpxI D225A mutant protein that contained a tightly bound UDP-DAG molecule. The enzyme was diluted using assay buffer containing 50 mM NaCl, 20 mM Tris-HCl pH7.5, 2.5 mM MnCl2, 0.01% Triton X-100.1 mg/mL BSA, and the final concentration is 2 nM. The compounds were diluted by Agilent liquid handler Bravo, the compound's serial dilution dose ranges from 100 μM to 1.7 nM. Then the enzyme and compounds mixture were incubated at room temperature for 10 mins. The enzymatic assay was started by adding UDP-DAG (FAC is 5 μM) and incubated for 20 mins at room temperature. The plate was then heated to 95° C. for 15 mins on a water batch to stop the reaction. The hydrolysis of UDP-DAG by LpxH yielded 2,3-diacylglucosamine 1-phosphate (lipid X) and UMP, which was converted to ATP and quantified by the luciferase reaction using the UMP/CMP-Glo™ Glycosyltransferase Assay kit from Promega. The compound's inhibitory effect of LpxH is determined by measuring the light change using a luminometer (Envision).

[2] = system: Escherichia coli BW 25113; experiment: Minimal Inhibitory Concentration (MIC) broth dilution assay, E. coli BW 25113; assay type: cell-based; settings: Escherichia coli, BW25113, 20 hours at 35° C., CAMHB, read-out: MIC E. coli K-12 BW 25113
Experimental: (§1) The antibacterial activity of molecules was evaluated against the commonly used quality control strain Escherichia coli BW 25113, Escherichia coli ATCC 25922 and the rifampin-resistant mutant strain Klebsiella pneumonia ATCC 43816. Escherichia co/i BW 25113 was obtained from the Coli Genetic Stock Center (CGSC) (strain 7636). Both Escherichia coli ATCC 25922 and Klebsiella pneumonia ATCC 43816 were originally derived from human clinical samples and are available from ATCC (American Type Culture Collection). The in vitro potency of compounds to inhibit Escherichia coli (BW 25113, ATCC 25922) and Klebsiella pneumonia (ATCC 43816) growth was assessed by the MIC (Minimal Inhibitory Concentration) broth dilution method. Specifically compound dilutions were prepared from 10 mM DMSO stock solutions as follows: i) serial 2-fold dilution in 20 μL DMSO were prepared in a master plate (Greiner, Cat No: 651201), ii) 180 μL sterile distilled water was added to each aliquot and iii) 10 μL diluted compounds were transferred into a new assay plate (Costar, 3599).
(§2) Vials of each test microorganisms were maintained frozen in the vapor phase of a liquid nitrogen freezer. Single-use frozen vials of the three strains Escherichia coli BW 25113, Escherichia coli ATCC 25922 (KWTKSTTK, 0335K) and Klebsiella pneumonia ATCC 43816, with predetermined CFU/mL, were taken out from the freezer, thawed at room temperature, and diluted in Cation-Adjusted Mueller Hinton Broth (CAMVIHB) to achieve a final inoculum of 5×10^5 CFU/mL. 90 μL bacteria containing broth was dispensed to the assay plate containing the pre-dispensed compound dilutions and mixed by pipetting 5 times.
(§3) Then the assay plates were incubated for 20 hours at 35° C. in ambient air. Following incubation, the MIC […], the lowest concentration of drug that inhibits visible growth of the microorganism was read with the help of a magnification mirror and recorded.

[3] = system: Klebsiella pneumonia ATCC 43816; experiment: Minimal Inhibitory Concentration (MIC) broth dilution assay, K. pneumonia ATCC 43816; assay type: cell-based; settings: Klebsiella pneumoniae, ATCC43816, 20 hours at 35° C., CAMHB, read-out: MIC K. p ATCC 43816
Experimental: as §1, §2, §3

[4] = Human microsome stability assay; assay type: in vitro ADME; settings: human liver microsomes 0.5 mg/mL, 37° C., pH 7.4, NADPH regenerating system
Experimental: The human microsomal stability assay is used for early assessment of metabolic stability of a test compound in human liver microsomes.
Human liver microsomes (Cat.NO.: 452117, Corning, USA) were preincubated with test compound for 10 minutes at 37° C. in 100 mM potassium phosphate buffer, pH 7.4. The reactions were initiated by adding NADPH regenerating system. The final incubation mixtures contained 1 µM test compound, 0.5 mg/mL liver microsomal protein, 1 mM MgCl2, 1 mM NADP, 1 unit/mL isocitric dehydrogenase and 6 mM isocitric acid in 100 mM potassium phosphate buffer, pH 7.4. After incubation times of 0, 3, 6, 9, 15 and 30 minutes at 37° C., 300 μL of cold acetonitrile (including internal standard) was added to 100 μL incubation mixture to terminate the reaction. Following precipitation and centrifugation, the amount of compound remaining in the samples were determined by LC-MS/MS. Controls of no NADPH regenerating system at zero and 30 minutes were also prepared and analyzed. […] (Human microsome clearance: <7 mL/min/kg: low; 7-16.2 mL/min/kg: medium; >16.2 mL/min/kg: high)

[5] = system: Escherichia coli ATCC 25922; experiment: Minimal Inhibitory Concentration (MIC) broth dilution assay, E. coli ATCC 25922; assay type: cell-based; settings: Escherichia coli, ATCC25922, 20 h, read-out: MIC E. coli ATCC 25922
Experimental: as §1, §2, §3

Escherichia coli UDP-2,3-diacylglucosamine hydrolase (LpxH), sequence (P43341 whole entry): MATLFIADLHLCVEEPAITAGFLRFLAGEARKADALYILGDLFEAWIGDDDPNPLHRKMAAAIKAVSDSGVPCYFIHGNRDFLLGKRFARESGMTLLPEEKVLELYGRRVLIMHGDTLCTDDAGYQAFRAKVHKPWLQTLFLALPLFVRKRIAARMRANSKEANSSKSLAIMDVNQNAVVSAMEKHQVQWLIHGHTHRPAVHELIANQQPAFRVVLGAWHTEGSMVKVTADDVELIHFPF

SMILES: NC(CO)CNC(=O)[C@H]1CC[C@H](C(F)(F)c2cc(Cl)nc(N3CCN(S(=O)(=O)c4ccc(N5C[C@H](N)CC5=O)cc4)CC3)c2)CC1 (stereo partly drawn) [Example 052, Trans-N-(2-amino-3-hydroxy-propyl)-4-[[2-chloro-6-[4-[4-[(4R)-4-amino-2-oxo-pyrrolidin-1-yl]phenyl]sulfonylpiperazin-1-yl]-4-pyridyl]-difluoro-methyl]cyclohexanecarboxamide]
- IC50 [1]: < 2.92 nM
- MIC [2]: 0.56 µg/mL (≈ 0.818 µM)
- MIC [3]: 0.56 µg/mL (≈ 0.818 µM)
- Clearance of Human microsome [4]: 7.41 mL/min/kg
- MIC [5]: 0.56 µg/mL (≈ 0.818 µM)

SMILES: NCCCNC(=O)C12CCC(C(F)(F)c3cc(Cl)nc(N4CCN(S(=O)(=O)c5ccc(N6C[C@H](N)CC6=O)cc5)CC4)c3)(CC1)CC2 [Example 033, N-(3-aminopropyl)-4-[[2-chloro-6-[4-[4-[(4R)-4-amino-2-oxo-pyrrolidin-1-yl]phenyl]sulfonylpiperazin-1-yl]-4-pyridyl]-difluoro-methyl]bicyclo[2.2.2]octane-1-carboxamide]
- IC50 [1]: 5.76 nM
- MIC [2]: 1.1 µg/mL (≈ 1.58 µM)
- MIC [3]: 0.43 µg/mL (≈ 0.619 µM)
- Clearance of Human microsome [4]: 10.77 mL/min/kg
- MIC [5]: 0.57 µg/mL (≈ 0.821 µM)

SMILES: NCCN(CCN)CCCNC(=O)[C@H]1CC[C@H](C(F)(F)c2cc(Cl)nc(N3CCN(S(=O)(=O)c4ccc(N5C[C@H](N)CC5=O)cc4)CC3)c2)CC1 [Example 047]
- IC50 [1]: 6.63 nM
- MIC [2]: 0.3 µg/mL (≈ 0.398 µM)
- MIC [3]: 0.3 µg/mL (≈ 0.398 µM)
- Clearance of Human microsome [4]: 6.15 mL/min/kg
- MIC [5]: 0.35 µg/mL (≈ 0.464 µM)

SMILES: NCCCNC(=O)[C@H]1CC[C@H](C(F)(F)c2cc(Cl)nc(N3CCN(S(=O)(=O)c4ccc(N5C[C@@H](CO)OC5=O)cc4)CC3)c2)CC1 [Example 058, Trans-N-(3-aminopropyl)-4-[[2-chloro-6-[4-[4-[(5S)-5-(hydroxymethyl)-2-oxo-oxazolidin-3-yl]phenyl]sulfonylpiperazin-1-y1]-4-pyridyl]-difluoro-methyl]cyclohexanecarboxamide]
- IC50 [1]: < 2.92 nM
- MIC [2]: 0.29 µg/mL (≈ 0.423 µM)
- MIC [3]: 1.1 µg/mL (≈ 1.61 µM)
- Clearance of Human microsome [4]: 8.04 mL/min/kg
- MIC [5]: 1.1 µg/mL (≈ 1.61 µM)

SMILES: CN(C)CCCNC(=O)c1ccc(C(F)(F)c2cc(Cl)nc(N3CCN(S(=O)(=O)c4ccc(N5C[C@H](N)CC5=O)cc4)CC3)c2)nc1 [Example 027, 6-[[2-chloro-6-[4-[4-[(4R)-4-amino-2-oxo-pyrrolidin-1-yl]phenyl]sulfonylpiperazin-1-yl]-4-pyridyl]-difluoro-methyl]-N-[3-(dimethylamino)propyl]pyridine-3-carboxamide]
- IC50 [1]: 5.79 nM
- MIC [2]: 1.6 µg/mL (≈ 2.31 µM)
- MIC [3]: 3.2 µg/mL (≈ 4.63 µM)
- Clearance of Human microsome [4]: 6.15 mL/min/kg
- MIC [5]: 3.2 µg/mL (≈ 4.63 µM)

SMILES: NCCCNC(=O)c1ccc(C(F)(F)c2cc(Cl)nc(N3CCN(S(=O)(=O)c4ccc(N5C[C@H](N)CC5=O)cc4)CC3)c2)nc1 [Example 026, N-(3-aminopropyl)-6-[[2-chloro-6-[4-[4-[(4R)-4-amino-2-oxo-pyrrolidin-1-yl]phenyl]sulfonylpiperazin-1-yl]-4-pyridyl]-difluoro-methyl]pyridine-3-carboxamide]
- IC50 [1]: 10.6 nM
- MIC [2]: 0.78 µg/mL (≈ 1.18 µM)
- MIC [3]: 0.78 µg/mL (≈ 1.18 µM)
- Clearance of Human microsome [4]: 6.15 mL/min/kg
- MIC [5]: 0.78 µg/mL (≈ 1.18 µM)

SMILES: NCC(O)CNC(=O)c1cnc(C(F)(F)c2cc(Cl)nc(N3CCN(S(=O)(=O)c4ccc(N5C[C@H](N)CC5=O)cc4)CC3)c2)cn1 (stereo partly drawn) [Example 022, N-(3-amino-2-hydroxy-propyl)-5-[[2-chloro-6-[4-[4-[(4R)-4-amino-2-oxo-pyrrolidin-1-yl]phenyl]sulfonylpiperazin-1-yl]-4-pyridyl]-difluoro-methyl]pyrazine-2-carboxamide]
- IC50 [1]: 5.88 nM
- MIC [2]: 1.4 µg/mL (≈ 2.06 µM)
- MIC [3]: 0.71 µg/mL (≈ 1.04 µM)
- Clearance of Human microsome [4]: 6.15 mL/min/kg
- MIC [5]: 0.71 µg/mL (≈ 1.04 µM)

SMILES: N[C@@H]1CC(=O)N(c2ccc(S(=O)(=O)N3CCN(c4cc(C(F)(F)[C@H]5CC[C@H](C(=O)N[C@H]6CNC[C@H]6N)CC5)cc(Cl)n4)CC3)cc2)C1 (stereo in doubt) [Example 011, Trans-4-[[2-chloro-6-[4-[4-[(4R)-4-amino-2-oxo-pyrrolidin-1-yl]phenyl]sulfonylpiperazin-1-yl]-4-pyridyl]-difluoro-methyl]-N-[cis-4-aminopyrrolidin-3-yl]cyclohexanecarboxamide]
- IC50 [1]: 17.3 nM
- MIC [2]: 1.1 µg/mL (≈ 1.58 µM)
- MIC [3]: 1.1 µg/mL (≈ 1.58 µM)
- Clearance of Human microsome [4]: 11.93 mL/min/kg
- MIC [5]: 1.1 µg/mL (≈ 1.58 µM)

SMILES: NCCCNC(=O)[C@H]1CC[C@H](C(F)(F)c2cc(Cl)nc(N3CCC(S(=O)(=O)c4ccc(N5C[C@H](N)CC5=O)cc4)CC3)c2)CC1 [Example 062, Trans-N-(3-aminopropyl)-4-[[2-chloro-6-[4-[4-[(4R)-4-amino-2-oxo-pyrrolidin-1-yl]phenyl]sulfonyl-1-piperidyl]-4-pyridyl]-difluoro-methyl]cyclohexanecarboxamide]
- IC50 [1]: 33 nM
- Clearance of Human microsome [4]: 7.74 mL/min/kg

SMILES: NCCCNC(=O)[C@H]1CC[C@H](C(F)(F)c2cc(Cl)nc(N3CCN(S(=O)(=O)c4ccc(N5C[C@H](N)CC5=O)cc4)CC3)c2)CC1 [Example 056, Trans-N-(3-aminopropyl)-4-[[2-chloro-6-[4-[4-[(4R)-4-amino-2-oxo-pyrrolidin-1-yl]phenyl]sulfonylpiperazin-1-yl]-4-pyridyl]-difluoro-methyl]cyclohexanecarboxamide]
- IC50 [1]: 5.99 nM
- MIC [2]: 1.1 µg/mL (≈ 1.65 µM)
- MIC [3]: 1.1 µg/mL (≈ 1.65 µM)
- Clearance of Human microsome [4]: 11.37 mL/min/kg
- MIC [5]: 1.2 µg/mL (≈ 1.8 µM)

SMILES: NCCCN(CCCN)C(=O)C12CCC(C(F)(F)c3cc(Cl)nc(N4CCN(S(=O)(=O)c5ccc(N6C[C@H](N)CC6=O)cc5)CC4)c3)(CC1)CC2 [Example 045, N,N-bis(3-aminopropyl)-4-[[2-chloro-6-[4-[4-[(4R)-4-amino-2-oxo-pyrrolidin-1-yl]phenyl]sulfonylpiperazin-1-yl]-4-pyridyl]-difluoro-methyl]bicyclo[2.2.2]octane-1-carboxamide]
- IC50 [1]: 18.6 nM
- MIC [2]: 1.2 µg/mL (≈ 1.6 µM)
- MIC [3]: 0.62 µg/mL (≈ 0.825 µM)
- Clearance of Human microsome [4]: 8.79 mL/min/kg
- MIC [5]: 0.62 µg/mL (≈ 0.825 µM)

SMILES: NCCCNC(=O)C12CC(C(F)(F)c3cc(Cl)nc(N4CCN(S(=O)(=O)c5ccc(N6C[C@H](N)CC6=O)cc5)CC4)c3)(C1)C2 [Example 040]
- IC50 [1]: 6.13 nM
- Clearance of Human microsome [4]: 6.15 mL/min/kg

SMILES: NCCCNC(=O)C1CCC(C(F)(F)c2cc(Cl)nc(N3CCN(S(=O)(=O)c4ccc(N5C[C@H](N)CC5=O)cc4)CC3)c2)C1 (stereo partly drawn) [Example 035, N-(3-aminopropyl)-3-[[2-chloro-6-[4-[4-[(4R)-4-amino-2-oxo-pyrrolidin-1-yl]phenyl]sulfonylpiperazin-1-yl]-4-pyridyl]-difluoro-methyl]cyclopentanecarboxamide]
- IC50 [1]: 45.9 nM
- Clearance of Human microsome [4]: 8.90 mL/min/kg
